# Source: PubChem BioAssay (NCI)
#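 Cells were grown in 96-well plates and exposed to each compound for 48 hours at five concentrations; endpoints were interpolated linearly between bracketing concentrations, or set to the highest concentration if not reached. At the GI50, growth is halved. Definition used: TGI = concentration required for complete inhibition of growth.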 Where a SMILES comes first, the peptide text is derived from it. The star is where a group is joined. Boc = CC(C)(C)OC(=O)*
# Key:
# Experiment in all cases: DTP human tumour cell line panel, 48 h
# A549 NSCLC = tested on: A549 NSCLC
# RXF 393 renal = tested on: RXF 393 renal
# HT29 colon = tested on: HT29 colon
# HCT-15 colon = tested on: HCT-15 colon
# UACC-62 melanoma = tested on: UACC-62 melanoma
# 786-0 renal = tested on: 786-0 renal
# MDA-MB-435 = tested on: MDA-MB-435
# UACC-257 melanoma = tested on: UACC-257 melanoma
SMILES,GI50 (A549 NSCLC),TGI (A549 NSCLC),GI50 (RXF 393 renal),TGI (RXF 393 renal),GI50 (HT29 colon),TGI (HT29 colon),GI50 (HCT-15 colon),TGI (HCT-15 colon),GI50 (UACC-62 melanoma),TGI (UACC-62 melanoma),GI50 (786-0 renal),TGI (786-0 renal),GI50 (MDA-MB-435),TGI (MDA-MB-435),GI50 (UACC-257 melanoma),TGI (UACC-257 melanoma)
CC1(C)N=C(N)N=C(N)N1c1ccc(CCCCc2ccc(Cl)c(S(=O)(=O)F)c2)c(Cl)c1,0.319 µM,3.98 µM,5.93 µM,27.8 µM,0.264 µM,15.7 µM,0.597 µM,> 100 µM,0.372 µM,> 47.9 µM,1.63 µM,> 39.7 µM,0.431 µM,18.7 µM,3.78 µM,18.4 µM
C[C@H](Nc1cc(Cl)nc2c1cnn2[C@@H]1O[C@H](COP(=O)(O)CP(=O)(O)O)[C@@H](O)[C@H]1O)c1ccccc1F,> 100 µM,> 100 µM,> 100 µM,> 100 µM,> 100 µM,> 100 µM,> 100 µM,> 100 µM,> 100 µM,> 100 µM,> 100 µM,> 100 µM,> 100 µM,> 100 µM,> 100 µM,> 100 µM
COc1ccc(-c2nsc3c2NC(=O)CC3c2cccc(OC)c2)cc1 (configuration not stated),0.714 µM,> 100 µM,2.29 µM,8.95 µM,0.427 µM,> 100 µM,0.527 µM,> 100 µM,0.865 µM,> 100 µM,12.5 µM,> 100 µM,0.282 µM,0.868 µM,12.9 µM,> 100 µM
CCCCCCCN=C(N)c1ccc(N2CCN(c3ccc(C(N)=NCCCCCCC)cc3)CC2)cc1,0.26 µM,15 µM,2.46 µM,6.69 µM,2.98 µM,> 100 µM,0.45 µM,> 61.9 µM,0.346 µM,–,0.596 µM,> 100 µM,0.0254 µM,0.0992 µM,1.24 µM,4.39 µM
C#Cc1nc(Nc2cc(C)[nH]n2)c2ccccc2n1,0.394 µM,2.24 µM,0.136 µM,0.301 µM,0.356 µM,11.3 µM,0.205 µM,0.474 µM,0.165 µM,0.332 µM,0.349 µM,1.13 µM,0.213 µM,0.563 µM,0.2 µM,0.631 µM
COC(=O)C(C)NC(=O)C(CCSC)NC(=O)C(Cc1ccccc1)NC(=O)OC(C)(C)C (stereo not drawn) (Boc-Phe-Met-Ala-OMe; configuration not given here),35.7 µg/mL,> 100 µM,–,–,–,> 100 µM,–,> 100 µM,28.2 µg/mL,> 100 µM,43.3 µg/mL,> 100 µM,39.2 µg/mL,> 100 µM,–,> 100 µM
CN1CC[C@@H](c2c(O)cc(O)c3c(=O)cc(-c4ccc(C(F)(F)F)cc4Cl)oc23)[C@@H]1CO,23.9 µM,56.2 µM,10.9 µM,24.8 µM,17.6 µM,33.9 µM,20.9 µM,78.2 µM,14.6 µM,32.8 µM,13.3 µM,31.9 µM,10 µM,23 µM,26.6 µM,46.7 µM
C=CCc1ccc(O)c(-c2ccc(O)c(CC=C)c2)c1,30.7 µM,> 100 µM,18.9 µM,47.3 µM,23.3 µM,53.8 µM,16.5 µM,33.7 µM,16 µM,30 µM,16.8 µM,33.5 µM,14.7 µM,31.5 µM,17.1 µM,40.6 µM
Oc1ccc2ccccc2c1N=Nc1ccc(Br)cc1,–,> 100 µM,–,> 100 µM,–,> 100 µM,–,> 100 µM,–,> 100 µM,–,> 100 µM,–,> 100 µM,–,> 100 µM
Cn1c(Nc2ccc(C(F)(F)F)cc2)nc2cc(Oc3ccnc(-c4ncc(C(F)(F)F)[nH]4)c3)ccc21,0.231 µM,11.7 µM,0.0544 µM,7.32 µM,0.124 µM,3.56 µM,0.0697 µM,12.8 µM,0.0519 µM,3.89 µM,2.22 µM,13.9 µM,0.0774 µM,9.44 µM,0.131 µM,0.977 µM
CCc1ccc(/C=C/c2ccc(O)c3ncccc23)[n+](C)c1,0.0377 µM,> 100 µM,> 100 µM,> 100 µM,> 29.3 µM,> 100 µM,40.9 µM,> 100 µM,> 21.5 µM,> 100 µM,> 100 µM,> 100 µM,4.49 µM,> 100 µM,16.9 µM,> 100 µM
CN(C)c1ncnc2c1ncn2CCn1cnc2c(N(C)C)ncnc21,–,> 100 µM,–,> 100 µM,–,> 100 µM,–,> 100 µM,–,> 100 µM,–,> 100 µM,–,> 100 µM,–,> 100 µM
S=c1[nH]c2c(Cl)c(Cl)c(Cl)c(Cl)c2[nH]1,–,> 100 µM,–,35.4 µM,–,48.1 µM,–,53.5 µM,–,33.3 µM,–,63.3 µM,–,48.8 µM,–,46.4 µM
CC(C(=O)O)c1cccc(Oc2ccccc2)c1 (configuration not stated),> 100 µM,> 100 µM,> 100 µM,> 100 µM,> 100 µM,> 100 µM,> 100 µM,> 100 µM,> 100 µM,> 100 µM,> 100 µM,> 100 µM,> 100 µM,> 100 µM,> 100 µM,> 100 µM
C[C@H]1CN[C@@H]2[C@@H](C)[C@H]3[C@@H](C[C@H]4[C@@H]5CC[C@H]6C[C@@H](N)CC[C@]6(C)[C@H]5CC[C@]34C)O[C@@]2(O)C1,–,17.3 µM,–,–,–,3.9 µM,–,4.5 µM,–,4.6 µM,–,3.66 µM,–,3.71 µM,–,3.74 µM
Clc1nc(Cl)nc(Nc2cccc3ccccc23)n1,> 100 µM,> 100 µM,–,–,> 100 µM,> 100 µM,96.5 µM,> 100 µM,82.5 µM,> 100 µM,> 100 µM,> 100 µM,43.6 µM,> 100 µM,> 100 µM,> 100 µM
COc1ccc(-c2cc(/C=C/C(=O)c3ccc(OC)c(OC)c3)[nH]n2)cc1,1.88 µM,5.95 µM,1.39 µM,2.94 µM,1.55 µM,3.45 µM,1.35 µM,3.56 µM,1.65 µM,3.35 µM,1.6 µM,3.09 µM,1.84 µM,3.88 µM,1.73 µM,3.65 µM

SMILES,GI50 (A549 NSCLC),TGI (A549 NSCLC),GI50 (RXF 393 renal),TGI (RXF 393 renal),GI50 (HT29 colon),TGI (HT29 colon),GI50 (HCT-15 colon),TGI (HCT-15 colon),GI50 (UACC-62 melanoma),TGI (UACC-62 melanoma),GI50 (786-0 renal),TGI (786-0 renal),GI50 (MDA-MB-435),TGI (MDA-MB-435),GI50 (UACC-257 melanoma),TGI (UACC-257 melanoma)
CN(C)CCSc1cc(-c2ccccc2)c2ccccc2n1,–,28.5 µM,–,15.8 µM,–,35.8 µM,–,14.6 µM,–,9.45 µM,–,25.2 µM,–,22.1 µM,–,24.8 µM
COC(=O)c1ccc2c(c1)/C(=C\c1cc(Br)c(O)c(Br)c1)C(=O)N2,8.19 µM,> 25 µM,6.06 µM,> 21.2 µM,4.3 µM,> 25 µM,5.47 µM,> 25 µM,2.77 µM,8.8 µM,10.1 µM,> 25 µM,3.1 µM,> 19.4 µM,4.24 µM,15.5 µM
COc1cccc2c1C(=O)c1c(O)c3c(c(O)c1C2=O)C[C@@](O)(/C(C)=N/NC(=O)c1ccc(Cl)cc1)C[C@@H]3OC1CC(N)C(O)C(C)O1 (some centres not stated),0.124 µM,1.85 µM,–,–,0.232 µM,1.41 µM,1.02 µM,12.6 µM,–,–,0.249 µM,1.69 µM,–,–,0.188 µM,0.867 µM
O=C(Nc1ccc(Cl)c(C(F)(F)F)c1)c1ccc(NC2=C(Cl)C(=O)N(Cc3ccccc3)C2=O)cc1,17 µM,34.8 µM,–,–,7.47 µM,> 100 µM,–,–,16.6 µM,30.2 µM,16.2 µM,32.9 µM,19.1 µM,36.8 µM,16.3 µM,42.7 µM
O=S(=O)(Nc1ccc(Cl)cc1Cl)c1ccc(-c2cnc(C3CC3)o2)cc1,1.02 µM,> 100 µM,0.359 µM,7.41 µM,0.41 µM,30.6 µM,0.445 µM,40.4 µM,0.391 µM,26.7 µM,0.615 µM,> 86.5 µM,0.182 µM,0.727 µM,10.5 µM,60.5 µM
CCOC(=O)c1c(-c2ccc(OC)cc2)c(C#N)c2c(C#N)c(N)nn2c1N,5.06 µM,> 100 µM,2.25 µM,11.5 µM,3.98 µM,> 100 µM,2.95 µM,> 100 µM,2.47 µM,15.2 µM,3.85 µM,23.3 µM,0.613 µM,2.89 µM,8.18 µM,> 100 µM
O=[N+]([O-])c1ccc(CI)cc1,3.68 µM,14.5 µM,2.44 µM,8.74 µM,–,–,1.17 µM,3.76 µM,2.94 µM,12.2 µM,4.71 µM,16.4 µM,2.89 µM,9.62 µM,3.47 µM,15.5 µM
COc1ccc(/C(=C\C=C(C#N)C#N)Sc2nc3ccccc3s2)cc1,15.5 µM,> 50 µM,1.47 µM,2.97 µM,1.54 µM,6.06 µM,–,–,8.63 µM,18.7 µM,1.7 µM,5.66 µM,8.34 µM,18.5 µM,10.3 µM,23.7 µM
O=C1c2cccc3cccc(c23)C(=O)N1CCCCCN1CCN(CCCCCOc2ccc(-c3nc4ccc(N5CCOCC5)cc4[nH]3)cc2)CC1,2.22 µM,5.26 µM,–,–,5.99 µM,23.8 µM,2.62 µM,8.63 µM,16.1 µM,> 57.1 µM,22.9 µM,51.3 µM,3.59 µM,13.2 µM,2.15 µM,3.76 µM
O=C1c2cc3c(cc2-c2c1c1cc(Cl)c(Cl)cc1c(=O)n2C[C@H](O)CO)OCO3,< 0.01 µM,0.253 µM,< 0.01 µM,0.0378 µM,–,–,0.0127 µM,14.3 µM,< 0.01 µM,0.0126 µM,< 0.01 µM,0.187 µM,0.0111 µM,0.168 µM,0.0123 µM,0.217 µM
CC1(Br)Cc2ccccc2C1=O (configuration not stated),–,32.4 µM,–,–,–,15.4 µM,–,–,–,3.63 µM,–,6.39 µM,2.14 µM,12.4 µM,13.3 µM,29.2 µM
O=c1[nH]c2ccc(O)cc2o1,–,> 100 µM,–,> 100 µM,–,> 100 µM,–,> 100 µM,–,> 100 µM,–,> 100 µM,–,–,–,> 100 µM
O=C(Nc1cc(C(F)(F)F)ccc1Cl)c1cccc(NC2=C(Cl)C(=O)N(Cc3ccccc3)C2=O)c1,72.8 µM,> 100 µM,–,–,43.1 µM,> 100 µM,23.5 µM,> 100 µM,26.5 µM,> 100 µM,38.5 µM,> 100 µM,15.7 µM,> 100 µM,53.7 µM,> 100 µM
Cc1nc2cc(Nc3nc(Nc4ccc(F)cc4)nc(-c4cccs4)n3)ccc2n1Cc1ccccc1,2.98 µM,15.1 µM,–,–,2.12 µM,4.44 µM,3.11 µM,16.3 µM,–,–,3.07 µM,9.11 µM,3.85 µM,35.2 µM,5.42 µM,30.1 µM
COc1ccc(Cn2c(N)c(S(=O)(=O)c3ccc(Cl)cc3)c3nc(C#N)c(C#N)nc32)cc1,18.2 µM,> 50 µM,1.45 µM,5.37 µM,–,–,> 50 µM,> 50 µM,4.36 µM,17.8 µM,3.33 µM,> 50 µM,> 50 µM,> 50 µM,> 50 µM,> 50 µM
COc1cc(/C=C\c2cc(OC)c(OC)c(OC)c2)cc(N/C=C\C(=O)c2cc(OC)c(OC)c(OC)c2)c1OC,5.14 µM,> 100 µM,–,–,3.21 µM,14.8 µM,3.08 µM,> 100 µM,3.11 µM,> 100 µM,3.76 µM,> 100 µM,–,–,> 100 µM,> 100 µM
